The subject of experiment [1] is wild-type TAR (wt-TAR) site. The conditions noted are these: RNA containing the TAR site; cited from earlier work.
The subject of the next experiment is HIV-1 TAR RNA. As to the kind of experiment: RNA cleavage reaction, HIV-1 TAR substrate. In kind it is biochemical. The conditions noted are these: 40 μM, not bound to RNA-binding protein (control). The method, then:
The above described polypeptides were tested for their ability to cleave RNA substrates which contained cognate binding sites. Typically, RNA target molecules containing the binding sites were 5'-end-labeled, purified on denaturing polyacrylamide gels, and annealed for use as substrates for cleavage (Example 2). A typical cleavage reaction contained 10^3 cpm of end-labeled RNA and 40-100 ng of polypeptide. Example 4A describes RNA cleavage reactions utilizing the TAT24C-phen polypeptide. The target RNA was incubated with TAT24C-phen at 25° C. for 10 min before the cleavage was initiated by adding CuSO4 and mercaptopropionic acid. After incubating for a given period of time, the reaction was stopped by the addition of 2,9-dimethyl-1,10-phenanthroline. RNAs were then isolated and analyzed on denaturing 15% sequencing gels. […] This is an expected site of cleavage based on binding of the polypeptide at the three-nucleotide bulge. A possible secondary cleavage site may be due to flexibility of the phenothroline-containing protein of the polypeptide, allowing it to reach to stem on the other side of the binding site.
Cleavage reactions using the polypeptide-cleaving reagents of the present invention were typically performed as follows. […]
RNAs from all reactions were ethanol precipitated and analyzed on a denaturing (8.3 M urea) 15% polyacrylamide gel. […]

The test system of experiment [2] is HIV-1 LTR-linked gene expression. The conditions noted are these: TAT protein taken up by cells; cited from earlier work.

We go through 3 molecules from patent US6063612A, “Antiviral reagents based on RNA-binding proteins” (priority 1991, dated 2000).

On to “synthetic 14-residue polypeptide: synthetic polypeptide spanning the basic region, amino acid residues 48-61 of the TAT protein (GRKKRRQRRRAHQN; UniProt P04608 48-61, looked up, fragment)”, for which, in experiment [1], the “binding to TAR-RNA (in words)” value is given as “bound TAR-RNA as well”.

With Cu(II)-1,10-phenanthroline, in the experiment with HIV-1 TAR RNA, the “cleavage pattern on HIV-1 TAR by free Cu(II)-phenanthroline” value was “cleaves everywhere, but the unpaired bases at the loop (especially G32) and the bulge are most reactive”.

B1: TAT protein: HIV-1 encoded 86 amino acid transactivator protein (protein)
chain: MEPVDPRLEPWKHPGSQPKTACTNCYCKKCCFHCQVCFITKALGISYGRKKRRQRRRPPQGSQTHQVSLSKQPTSQSRGDPTGPKE
As for B1, the “effect on HIV-1 LTR-linked gene expression” value in experiment [2] is “specifically activates HIV-1 LTR-linked gene expression”.
